The half-life is how long it takes for the measured level to halve. A low value points to fast loss. By IC50 is commonly meant the concentration that gives 50% inhibition. Read a low IC50 as greater potency.

Read-outs that look alike come from different tables or passages of the source.

For two compounds, CLint scaled, half-life and IC50 results are on record in patent EP4748841A1, “BICYCLO[5,6] IMIDAZOLE PYRIMIDONE DERIVATIVE AND PREPARATION METHOD THEREFOR AND USE THEREOF” (Shujing Biopharma Co., Ltd, priority 2023, dated 2025).

The nature of data set [1]: Liver microsome stability experiment (SD rat). The class given is in vitro ADME. The following applies: for CLint scaled at 1 µM: SD, rat, liver microsomes, pH 7.4, SD rat liver microsomes; for half-life at 1 µM: pH 7.4, SD rat liver microsomes. As to the method:
This experiment aimed to evaluate the phase I metabolic stability of the compounds of the present disclosure in liver microsomes of SD rats, beagle dogs, cynomolgus monkeys, and humans.
• (1) Buffer preparation: 73.21 g of dipotassium hydrogen phosphate trihydrate and 10.78 g of potassium dihydrogen phosphate were dissolved in 4000 mL of ultrapure water. The pH of the solution was adjusted to within 7.40 ± 0.10 using 10% phosphoric acid or 1 M potassium hydroxide, resulting in a final concentration of 100 mM. • (2) Solution preparation and dilution: Stock solutions of the test compounds at a concentration of 10 mM were prepared in dimethyl sulfoxide (DMSO) and stored at 4 °C, and they were diluted into 100 µM working solutions with pure acetonitrile when used. A stock solution of the control compound testosterone at a concentration of 10 mM was prepared in DMSO and stored at -20 °C, and it was diluted into a 400 µM working solution with pure acetonitrile when used. • (3) Termination solution preparation: The termination solution was an acetonitrile solution containing an internal standard (terfenadine). The prepared termination solution was stored in a refrigerator at 2-8 °C. • (4) Liver microsome solution preparation: Liver microsomes from various species (SD rat, beagle dog, cynomolgus monkey, and human) were diluted into 20× working solutions using 100 mM potassium phosphate buffer. The final concentration of the liver microsomes in the reaction system was 0.5 mg/mL. • (5) Reduced nicotinamide adenine dinucleotide phosphate (NADPH) regeneration system preparation: Appropriate amounts of nicotinamide adenine dinucleotide phosphate (NADP), glucose-6-phosphate (G6P), magnesium chloride (MgCl2), and glucose-6-phosphate dehydrogenase (G6PDH) were weighed to prepare stock solutions at concentrations of 65.33 mM, 330 mM, 300 mM, and 250 Units/mL, respectively. The four stock solutions described above were each added to an appropriate amount of buffer, and the mixture was mixed well by gently inverting up and down. The final concentrations of NADP, G6P, MgCl2, and G6PDH in the NADPH regeneration system were 2.65 mM, 10.2 mM, 6.12 mM, and 2.45 Units/mL, respectively. • (6) Incubation process: The incubation was completed in 96-well plates. Several incubation plates were prepared and named T0, T5, T10, T20, T40, T60, and NCF60, respectively. The first 6 plates corresponded to reaction time points of 0 min, 5 min, 10 min, 20 min, 40 min, and 60 min, respectively. The NCF60 plate was incubated for 60 min with potassium phosphate buffer replacing the NADPH regeneration system solution. Samples under all conditions were prepared in triplicate.
2 µL of the test compound or control compound and 100 µL of microsome working solution (containing 1 mg/mL liver microsome protein) were added to each of the T0, T5, T10, T20, T40, T60, and NCF60 plates, and only the microsome working solution was added to the Blank 60 plate. The plates described above were then pre-incubated in a 37 °C water bath for about 10 min.
After the pre-incubation was completed, 98 µL of the NADPH regeneration system working solution was added to each sample well except for the NCF60 plate and the T0 plate to initiate the reaction, and 98 µL of potassium phosphate buffer was added to each well of the NCF60 plate. Therefore, for the sample wells containing the test sample or control substance working solution, the final concentrations of TC and testosterone in the reaction were 1 µM and 4 µM, respectively, the concentration of liver microsomes was 0.5 mg/mL, and the final concentrations of DMSO and acetonitrile in the reaction system were 0.01% (v/v) and 0.99% (v/v), respectively.
After incubation for an appropriate time (e.g., 5 min, 10 min, 20 min, 40 min, and 60 min), 600 µL of a termination solution (an acetonitrile solution containing 100 ng/mL […]) was added to each test compound sample well and control compound sample well to terminate the reaction. […]
For orientation: Liver microsomes are a subcellular fraction often used to study metabolism.

For another data set, the target named is T1, Lp-PLA2 (Homo sapiens, UniProt Q13093).
T1 construct: from tissue; host or cells: pooled (mixed) human plasma
T1 sequence (Q13093 22-441): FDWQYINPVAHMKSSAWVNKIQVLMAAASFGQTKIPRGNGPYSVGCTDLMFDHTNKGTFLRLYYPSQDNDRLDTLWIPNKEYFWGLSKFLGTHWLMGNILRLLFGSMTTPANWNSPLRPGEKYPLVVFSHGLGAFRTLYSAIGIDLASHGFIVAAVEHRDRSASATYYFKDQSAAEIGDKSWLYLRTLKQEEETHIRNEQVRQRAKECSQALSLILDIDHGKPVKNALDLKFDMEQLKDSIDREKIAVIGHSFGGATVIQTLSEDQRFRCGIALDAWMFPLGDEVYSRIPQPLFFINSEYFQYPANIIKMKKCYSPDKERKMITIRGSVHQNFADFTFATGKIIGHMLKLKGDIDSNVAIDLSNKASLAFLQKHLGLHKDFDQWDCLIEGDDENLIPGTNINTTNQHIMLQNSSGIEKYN
Kind of data set: Inhibitory activity against Lp-PLA2 in human plasma (Thio-PAF assay). The class given is biochemical. The settings on record: 2-thio-PAF substrate, 30 min pre-incubation. The text has this:
The literature reports that 2-Thio-PAF, commercially available from Cayman Chemical, is a substrate for PAF hydrolase (PAF-AH). After its cleavage by PAF-AH, the free thiol released at the sn-2 position can react with 7-diethylamino-3-(4'-maleimidophenyl)-4-methylcoumarin (CPM), resulting in increased fluorescence. Thus, Lp-PLA2 inhibitors can prevent this cleavage, and no increase in fluorescence is observed. In this experiment, the human plasma assay employed the same thioester analog of PAF as described in the recombinant human Lp-PLA2 assay described above.
• (1) The Thio-PAF assay was performed as a quenched 75 µL assay. A compound source plate was prepared by preparing 1:4 (v/v) serial diluents of the compounds in pure DMSO in a 96-well microplate. • (2) 1 µL of each test compound from the compound source plate was transferred into a 96-well microplate containing 40 µL of pre-thawed mixed human plasma by a Rainin multichannel pipette, and the plasma was thawed at room temperature and centrifuged at 2000 rpm for 10 min. The plate was shaken on a microplate shaker for 2 min for uniform mixing. • (3) After 30 min of pre-incubation at room temperature, 10 µL of a substrate solution was added sequentially to the 96-well microplate described above by a Rainin multichannel pipette. The substrate solution contained 2.5 mM 2-thio-PAF (from an ethanol mother liquor), 32 µM CPM (from a DMSO mother liquor), and 3.2 mM N-ethylmaleimide (freshly prepared in DMSO for each experiment) in assay buffer (pH 7.4) consisting of 50 mM HEPES, 150 mM NaCl, and 1 mM CHAPS. After the addition was completed, the plate was immediately shaken for 2 min, and the reaction time for the substrate was 4 min in total. After the reaction was completed, the reaction was quenched with 25 µL of an aqueous solution of 5% trifluoroacetic acid. The plate was centrifuged at 1000 rpm for 1 min. • (4) The FLINT signal (FLINT380/480) was read using a microplate reader. • (5) IC50 data, curve fitting, and QC analyses were performed using GraphPad Prism 8.0 and Excel.

The mark [2] stands for this setting: 0.5 mg/mL, 1 µM, read-out: CL(liver).
The mark [3] stands for this setting: 0.5 mg/mL, 1 µM, read-out: CLint(liver).
Where [4] appears, read: read-out: Clearance rate classification.

For the compound `O=c1nc(OCc2cc(F)c(Oc3ccnc(C(F)(F)F)c3)c(F)c2)cc2n1C[C@H]1CCN21` [Example 34-R], the CLint scaled at 1 µM was under 10.8 mL/min/kg in data set [1] (setting [2]), under 13.4 mL/min/kg in data set [1] (setting [3]) and at most 23.7 mL/min/kg in data set [1] (setting [4]). This compound also showed a half-life at 1 µM in data set [1] (0.5 mg/mL, 1 µM) of over 186 min. For the same compound, the IC50 against Lp-PLA2 was 3.3 nM.

As to `O=c1nc(OCc2cc(F)c(Oc3ccnc(C(F)(F)F)c3)c(F)c2)cc2n1C[C@H]1CCCN21` [Comparative Example 1, reference compound], the CLint scaled at 1 µM in data set [1] (setting [2]) is 18.9 mL/min/kg; in data set [1] (setting [3]) it was 28.7 mL/min/kg; in data set [1] (setting [4]), 23.7 to 129 mL/min/kg. The compound further gave a half-life at 1 µM in data set [1] (0.5 mg/mL, 1 µM) of 87 min. The same compound yielded an IC50 against Lp-PLA2 of 16.4 nM.
